Results reported in PubChem BioAssay (NCI).
“And” between values parts separate entries of the source, which are not always exact repeats. Equal entries are not always repeated.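 Five concentrations, 48 hours, 96-well plates. GI50 is the concentration that inhibits growth by half. TGI: total growth inhibition.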

Assays:
Experiment in all cases: growth of human tumour cells (NCI), 48 h
LOX IMVI melanoma = tested on: LOX IMVI melanoma
SR leukemia = tested on: SR leukemia
ACHN renal = tested on: ACHN renal
SF-539 CNS = tested on: SF-539 CNS
HCT-116 colon = tested on: HCT-116 colon
CAKI-1 renal = tested on: CAKI-1 renal
SN12C renal = tested on: SN12C renal
RXF 393 renal = tested on: RXF 393 renal
NCI-H226 lung = tested on: NCI-H226 lung
MOLT-4 leukemia = tested on: MOLT-4 leukemia

Row | Compound | TGI (LOX IMVI melanoma) | TGI (SR leukemia) | TGI (ACHN renal) | TGI (SF-539 CNS) | TGI (HCT-116 colon) | TGI (CAKI-1 renal) | TGI (SN12C renal) | TGI (RXF 393 renal) | TGI (NCI-H226 lung) | TGI (MOLT-4 leukemia) | GI50 (LOX IMVI melanoma) | GI50 (SR leukemia) | GI50 (ACHN renal) | GI50 (SF-539 CNS) | GI50 (HCT-116 colon) | GI50 (CAKI-1 renal) | GI50 (SN12C renal) | GI50 (RXF 393 renal) | GI50 (NCI-H226 lung) | GI50 (MOLT-4 leukemia)
1 | C[N+](C)=c1nc(N2CCOCC2)ss1 | > 100 µM | > 100 µM | > 100 µM | > 100 µM | > 100 µM | > 100 µM | > 100 µM | > 100 µM | > 100 µM | > 100 µM |  |  |  |  |  |  |  |  |  | 
2 | CN(C)C(=O)SC1=C(c2c(Cl)cccc2Cl)C(=O)c2ccccc21 | 3.75 µM | 88.9 µM | 5.03 µM | 22.8 µM | 3.28 µM | 5.72 µM | 17.7 µM | 8.59 µM | 59.8 µM | 7.06 µM | 1.74 µM | 3.56 µM | 2.23 µM | 9.01 µM | 1.75 µM | 2.15 µM | 6.18 µM | 4.18 µM | 19.9 µM | 2.5 µM
3 | CN(C)CCCC1(c2ccc(F)cc2)OCc2cc(-c3cncc4ccccc34)ccc21 (stereo not given) | 3.27 µM | 17.9 µM | 12.5 µM | 3.29 µM | 11 µM | 5.88 µM | 17 µM | 10.1 µM | 27 µM | 6.7 µM | 1.72 µM | 3 µM | 3.34 µM | 1.76 µM | 2.94 µM | 2 µM | 4.05 µM | 2.51 µM | 8.65 µM | 2.39 µM
4 | CN(C)CCCN1c2ccccc2Sc2ccc(Cl)cc21 | 23.4 µM and 24.5 µM | 11 µM and 20.2 µM | 14.8 µM and 18.3 µM | 7.79 µM and 26 µM | 10.9 µM and 12.8 µM | 20.7 µM and 20.8 µM | 14.8 µM and 17.7 µM | 12.2 µM and 11 µM | 29.8 µM and 29.1 µM | 18.4 µM and 23.7 µM | 10.8 µM and 10.3 µM | 3.01 µM and 3.94 µM | 4.06 µM and 5.71 µM | 3.22 µM and 11.4 µM | 3.28 µM and 3.6 µM | 6.78 µM and 6.91 µM | 3.85 µM and 4.87 µM | 3.16 µM and 2.85 µM | 13.1 µM and 15.2 µM | 4.78 µM and 6.84 µM
5 | CCc1cccc(CC)c1/C=C/c1cncc(C(=O)NC)c1 | > 25 µM | > 25 µM | > 25 µM | > 25 µM | > 25 µM | > 25 µM | > 25 µM | 24.8 µM | > 25 µM | > 25 µM | 11.5 µM | 7.24 µM | 22.1 µM | 8.58 µM | 9.46 µM | 9.62 µM | 10.8 µM | 5.87 µM | 17.2 µM | 12.4 µM
6 | CCCCCCCCCC(=O)Oc1cccc2onc(C)c12 | > 100 µM | > 100 µM | > 100 µM | > 100 µM | > 100 µM | > 100 µM | > 100 µM | > 100 µM | > 100 µM | > 100 µM |  |  |  |  |  |  |  |  |  | 
7 | Cc1nnc(N=Nc2c(O)[nH]c3ccccc23)n1N | > 100 µM | > 100 µM | > 100 µM | > 100 µM | > 100 µM | > 100 µM | > 100 µM | > 100 µM | > 100 µM | > 100 µM |  |  |  |  |  |  |  |  |  | 
8 | Cc1ccc(/C=C2\CNC/C(=C\c3ccc(C)cc3)C2=O)cc1 | 1.49 µM and 2.11 µM | 2.87 µM and 1.83 µM | 3.81 µM and 5.93 µM | 5.04 µM and 19.5 µM | 0.382 µM and 1.93 µM | 4.49 µM and 7.54 µM | 3.24 µM and 6.25 µM | 3.84 µM and 3.29 µM | 4.85 µM and 4.96 µM | 4.84 µM and 19.2 µM | 0.403 µM | 0.565 µM |  | 1.53 µM | 0.202 µM | 1.63 µM | 1.77 µM | 2.24 µM and 1.81 µM |  | 1.81 µM
9 | CCCn1cnc2c(SCc3ccccc3)nc(N)nc21 | > 100 µM | > 100 µM | > 100 µM | > 100 µM | > 100 µM | > 100 µM | > 100 µM | > 100 µM | > 100 µM | > 100 µM | 98.9 µM | 49.6 µM | > 100 µM | > 100 µM | 63 µM | 89.3 µM | > 100 µM | 24.4 µM | 30.5 µM | 95.7 µM
10 | CC(C)(C)[Si](C)(C)OCC1OC(n2cnc3c(N)ncnc32)C(O)C1O (stereo not given) | > 100 µM | > 100 µM | > 100 µM | > 100 µM | > 100 µM | > 100 µM | > 100 µM | > 100 µM | > 100 µM | > 100 µM |  |  |  |  |  |  |  |  |  | 
11 | CC[C@H](C)[C@H](NC(=O)[C@H]1CCCCN1C)C(=O)N(C)[C@H](C[C@@H](OC(C)=O)c1nc(C(=O)N[C@@H](Cc2ccccc2)C[C@H](C)C(=O)OC)cs1)C(C)C | > 25 µM | 9.59 µM | > 25 µM | 0.00437 µM and < 0.0025 µM |  |  | > 25 µM | 22.7 µM | < 0.0025 µM | > 25 µM | 0.000536 µM and 0.0025 µM |  | 0.000773 µM and 0.0025 µM | 0.000482 µM and < 0.0025 µM | 0.000357 µM | 0.000792 µM | 0.00076 µM and 0.0025 µM | 0.0025 µM | 0.00234 µM and < 0.0025 µM | 0.00331 µM and 0.0025 µM
12 | Nc1ccn([C@@H]2C(F)=C(CO)[C@@H](O)[C@H]2O)c(=O)n1 | > 100 µM | > 100 µM | > 100 µM | > 100 µM | > 100 µM | > 100 µM | > 100 µM | > 100 µM | > 100 µM | > 100 µM | 0.453 µM | 0.443 µM | 0.755 µM | 1.94 µM | 0.395 µM | 7.1 µM | 0.448 µM | 8.04 µM | 11.5 µM | 1.85 µM
13 | Cc1cc([N+](=O)[O-])c(S(=O)(=O)c2ccccc2)c([N+](=O)[O-])c1 | 6.51 µM | > 100 µM | 33.4 µM | 32.6 µM | 22.5 µM | 10.3 µM | 18.3 µM | 4.8 µM | 41.9 µM | > 28.9 µM |  |  |  |  |  |  |  |  |  | 
14 | COc1ccc(-c2nc3c(c(=O)n2C(C)=O)C(c2ccc(Cl)cc2)c2sc4c(Cl)cccc4c2O3)cc1 (stereo not given) | 1.84 µM | 5.05 µM | 4.51 µM | 0.84 µM | 1.38 µM | 4.16 µM | 2.23 µM | 0.675 µM | 2.24 µM | 2.64 µM | 0.504 µM | 0.354 µM | 0.897 µM | 0.259 µM | 0.341 µM | 0.49 µM | 0.64 µM | 0.235 µM | 0.329 µM | 0.386 µM
